For this test, the target named is T1, Human CaV2.2 channels (Homo sapiens, UniProt Q00975).
T1 construct: expressed in transfected cells
T1 sequence (Q00975 whole entry): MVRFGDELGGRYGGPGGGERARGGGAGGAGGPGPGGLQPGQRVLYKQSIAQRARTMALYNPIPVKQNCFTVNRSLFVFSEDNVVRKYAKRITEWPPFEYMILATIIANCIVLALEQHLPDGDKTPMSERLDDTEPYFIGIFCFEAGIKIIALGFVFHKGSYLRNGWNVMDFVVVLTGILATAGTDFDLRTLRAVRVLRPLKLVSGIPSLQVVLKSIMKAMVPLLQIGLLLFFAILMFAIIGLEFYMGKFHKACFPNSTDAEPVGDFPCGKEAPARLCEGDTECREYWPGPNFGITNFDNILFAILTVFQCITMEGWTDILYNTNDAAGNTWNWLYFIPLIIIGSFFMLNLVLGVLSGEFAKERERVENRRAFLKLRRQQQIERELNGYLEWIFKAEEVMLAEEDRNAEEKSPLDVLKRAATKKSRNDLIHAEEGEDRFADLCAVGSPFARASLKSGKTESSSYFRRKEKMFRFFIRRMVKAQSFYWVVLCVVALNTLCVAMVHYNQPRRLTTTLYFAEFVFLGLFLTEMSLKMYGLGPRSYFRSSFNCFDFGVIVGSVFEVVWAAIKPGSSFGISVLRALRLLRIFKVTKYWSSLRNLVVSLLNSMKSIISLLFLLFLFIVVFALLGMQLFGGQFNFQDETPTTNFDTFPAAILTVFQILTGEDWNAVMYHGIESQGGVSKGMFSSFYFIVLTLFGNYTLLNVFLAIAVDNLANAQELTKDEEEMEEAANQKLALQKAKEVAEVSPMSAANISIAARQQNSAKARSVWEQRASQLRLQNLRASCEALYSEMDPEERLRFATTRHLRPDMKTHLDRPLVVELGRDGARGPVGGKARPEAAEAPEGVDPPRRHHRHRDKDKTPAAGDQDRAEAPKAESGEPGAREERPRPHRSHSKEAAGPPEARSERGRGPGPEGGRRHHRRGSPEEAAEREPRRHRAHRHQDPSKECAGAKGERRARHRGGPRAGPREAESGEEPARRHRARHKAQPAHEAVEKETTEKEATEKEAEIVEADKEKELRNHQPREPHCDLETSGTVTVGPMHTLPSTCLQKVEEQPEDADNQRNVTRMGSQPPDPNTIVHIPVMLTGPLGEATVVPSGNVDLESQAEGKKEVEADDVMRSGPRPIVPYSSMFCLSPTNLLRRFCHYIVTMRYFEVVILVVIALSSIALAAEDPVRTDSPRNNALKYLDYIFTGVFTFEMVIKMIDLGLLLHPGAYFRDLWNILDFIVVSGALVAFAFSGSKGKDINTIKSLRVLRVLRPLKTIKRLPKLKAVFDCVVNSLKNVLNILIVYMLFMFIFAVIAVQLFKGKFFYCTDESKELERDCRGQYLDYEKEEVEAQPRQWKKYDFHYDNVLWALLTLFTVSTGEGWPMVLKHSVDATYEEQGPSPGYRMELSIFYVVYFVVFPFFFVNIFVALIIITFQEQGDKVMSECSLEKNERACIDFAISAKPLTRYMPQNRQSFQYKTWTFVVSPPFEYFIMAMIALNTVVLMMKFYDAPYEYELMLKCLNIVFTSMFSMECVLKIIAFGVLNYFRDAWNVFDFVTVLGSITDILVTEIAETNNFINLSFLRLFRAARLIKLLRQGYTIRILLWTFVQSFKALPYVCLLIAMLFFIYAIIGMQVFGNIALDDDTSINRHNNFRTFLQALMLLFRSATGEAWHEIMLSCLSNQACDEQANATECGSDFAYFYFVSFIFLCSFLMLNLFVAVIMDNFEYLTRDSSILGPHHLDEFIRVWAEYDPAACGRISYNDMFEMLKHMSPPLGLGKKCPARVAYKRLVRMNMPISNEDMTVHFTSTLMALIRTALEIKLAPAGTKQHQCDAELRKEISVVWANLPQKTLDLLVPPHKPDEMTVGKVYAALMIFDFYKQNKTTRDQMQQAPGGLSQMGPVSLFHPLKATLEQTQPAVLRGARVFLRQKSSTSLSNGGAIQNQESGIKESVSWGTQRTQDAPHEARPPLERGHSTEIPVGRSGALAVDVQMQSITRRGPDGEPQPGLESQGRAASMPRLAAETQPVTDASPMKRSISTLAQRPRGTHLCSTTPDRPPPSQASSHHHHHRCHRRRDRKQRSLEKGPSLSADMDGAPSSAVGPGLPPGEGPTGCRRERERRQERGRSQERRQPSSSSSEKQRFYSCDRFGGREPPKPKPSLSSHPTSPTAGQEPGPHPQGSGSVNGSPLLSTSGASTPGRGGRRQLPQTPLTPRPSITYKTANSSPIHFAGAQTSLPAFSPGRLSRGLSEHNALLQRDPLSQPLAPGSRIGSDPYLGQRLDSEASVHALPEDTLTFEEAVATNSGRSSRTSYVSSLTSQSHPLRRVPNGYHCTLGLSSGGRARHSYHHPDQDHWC
T1 sequence (P54289 25-1103, further chain): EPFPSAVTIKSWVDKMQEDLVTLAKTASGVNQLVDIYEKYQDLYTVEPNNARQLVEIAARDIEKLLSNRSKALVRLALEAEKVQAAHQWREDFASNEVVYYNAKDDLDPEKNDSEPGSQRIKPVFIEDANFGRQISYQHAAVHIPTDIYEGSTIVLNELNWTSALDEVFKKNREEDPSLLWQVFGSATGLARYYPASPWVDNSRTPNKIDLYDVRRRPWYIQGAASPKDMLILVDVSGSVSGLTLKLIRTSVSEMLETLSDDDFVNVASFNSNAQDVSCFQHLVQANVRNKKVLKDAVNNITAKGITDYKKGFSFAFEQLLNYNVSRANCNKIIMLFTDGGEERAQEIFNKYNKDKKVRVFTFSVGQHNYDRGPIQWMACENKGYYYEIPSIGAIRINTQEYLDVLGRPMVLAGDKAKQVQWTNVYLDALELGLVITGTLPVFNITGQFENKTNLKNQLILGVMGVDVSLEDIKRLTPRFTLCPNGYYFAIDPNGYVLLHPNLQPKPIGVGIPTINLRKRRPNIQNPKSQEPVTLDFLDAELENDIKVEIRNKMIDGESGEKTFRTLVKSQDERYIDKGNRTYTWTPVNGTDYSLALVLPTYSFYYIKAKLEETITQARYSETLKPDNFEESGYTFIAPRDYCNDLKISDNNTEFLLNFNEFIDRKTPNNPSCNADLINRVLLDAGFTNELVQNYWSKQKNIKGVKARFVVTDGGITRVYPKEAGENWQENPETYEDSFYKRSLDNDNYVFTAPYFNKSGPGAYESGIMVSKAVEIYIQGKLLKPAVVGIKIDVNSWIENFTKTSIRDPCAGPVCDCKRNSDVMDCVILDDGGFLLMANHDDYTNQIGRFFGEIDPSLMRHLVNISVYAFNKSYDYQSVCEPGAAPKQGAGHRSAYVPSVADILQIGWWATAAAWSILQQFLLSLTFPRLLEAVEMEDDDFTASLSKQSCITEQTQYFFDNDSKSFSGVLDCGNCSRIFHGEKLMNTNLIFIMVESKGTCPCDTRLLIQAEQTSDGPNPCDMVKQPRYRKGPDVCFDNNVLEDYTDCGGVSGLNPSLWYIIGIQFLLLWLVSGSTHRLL
T1 sequence (P54284 whole entry, further chain): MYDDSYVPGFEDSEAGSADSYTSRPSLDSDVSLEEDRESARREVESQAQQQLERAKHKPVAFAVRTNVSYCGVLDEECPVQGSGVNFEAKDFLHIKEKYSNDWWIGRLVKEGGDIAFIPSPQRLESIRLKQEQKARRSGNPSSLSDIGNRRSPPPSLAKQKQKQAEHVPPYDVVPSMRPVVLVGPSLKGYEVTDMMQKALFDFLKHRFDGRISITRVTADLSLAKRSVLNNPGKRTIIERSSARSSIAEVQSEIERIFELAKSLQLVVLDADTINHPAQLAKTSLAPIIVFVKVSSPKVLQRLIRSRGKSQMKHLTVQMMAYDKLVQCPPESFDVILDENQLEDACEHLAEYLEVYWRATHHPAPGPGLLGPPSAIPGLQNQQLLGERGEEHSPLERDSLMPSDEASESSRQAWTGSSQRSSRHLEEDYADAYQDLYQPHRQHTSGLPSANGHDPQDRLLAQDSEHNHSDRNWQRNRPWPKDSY
The test can be described thus: Fluorescent assay for CaV2.2 channels using potassium depolarization to induce channel opening (FLIPR, Fluo 4). The note with it: read-out: Activity Category: %-Inhib (CaV2.2) @3 μM @30 mM KCl; 3 μM test compound; 30 mM KCl as printed; HEK293 cells stably expressing human CaV2.2. It counts as cell-based. An excerpt:
In the process, the Ca^2+ influx is quantified in the FLIPR assay with the aid of a Ca^2+-sensitive dye (type Fluo-4, Molecular Probes Europe BV, Leiden, the Netherlands) in a fluorescent imaging plate reader (FLIPR 3, Molecular Devices, Sunnyvale, USA), as described hereinafter.
Human CaV2.2 channels were stably expressed in HEK293 cells together with alpha2-delta and beta subunits of voltage gated calcium channels. In addition, an inwardly rectifying potassium channel (Kir2.3) was stably expressed in these cells to augment control of the cell membrane potential by the concentration of extracellular potassium ions. Raise of the extracellular potassium concentration leads to depolarization of the membrane potential and thus regulates the voltage dependent state of CaV2.2 channels. For preparation, cells were seeded in black poly-D-lysine coated 96-well plates (Becton Dickinson, Biocoat 4640) in 100 μL medium [500 mL DMEM/F-12 plus Glutamax (Invitrogen 31331-093) plus 5.5 mL MEM NEAA 100× (Invitrogen 11140-035) plus 50 mL FBS decomplemented (Invitrogen 10270-106) plus 200 μg/mL Geneticin (Invitrogen 10131-027) plus 50 μg/mL Hygromycin B (Invitrogen 10687-010) plus 2 μg/mL Blasticidin (anti-bl5b Invivo-Gen) plus 0.2 μg/mL Puromycin (A 11138-03)] at a cell density of 30.000 cells per well. Plates were incubated at 37° C. (5% CO2) for 20 to 23 h. On the day of experiment medium was discarded and cells were loaded with Fluo 4 by addition of 100 μL of basic assay buffer (10 mM HEPES, 1 mM KCl, 149 mM NaCl, 0.8 mM CaCl2, 1.7 mM MgCl2, 10 mM Glucose, 0.1% BSA. pH 7.4) containing 2 μM Fluo 4 (Molecular Probes; F-14201), 0.01% pluronic acid (Molecular Probes; P-6866) and 2.5 mM probenecid (Molecular Probes; P36400). Cells were incubated in the dark at 25° C. for 60 min. Then dye containing buffer was discarded and 100 μL basic (1 mM KCl) or alternative (30 mM KCl) assay buffer was added. The alternative assay buffer contained altered concentrations of KCl (30 mM) and NaCl (120 mM) and was used in order to promote the inactivated channel state. After that 25 μL of basic or alternative assay buffer with or without test compound were added and cells were incubated again in the dark at 25° C. for 15 min. Fluorescence intensity was measured on a FLIPR 3 instrument (Molecular Devices Corp., Sunnyvale, Calif.) with excitation at 480 nm and emission at 535 nm. After continuously reading fluorescence for 30 sec, 50 μL of basic assay buffer containing 210 mM KCl (NaCl omitted) were added for depolarization. Peak fluorescent signal intensity was determined and the amplitude of the peak signal, normalized to base line, was used to measure channel inhibition by test compounds.
As for `Cc1c(-c2ccc(Cl)cc2)c(C(=O)N2CC(F)(F)C2)n(-c2cnccn2)c1C(F)(F)F` [Example 050, [3-(4-Chlorophenyl)-4-methyl-1-pyrazin-2-yl-5-(trifluoromethyl)-1H-pyrrol-2-yl]-(3,3-difluoro-azetidin-1-yl)-methanone], the inhibition at 3 µM was 75 to 95%.
As for `Cc1c(-c2ccc(Cl)cc2)c(C(=O)N2CC(C)(O)C2)n(-c2cnccn2)c1C(F)(F)F` [Example 051, [3-(4-Chlorophenyl)-4-methyl-1-pyrazin-2-yl-5-(trifluoromethyl)-1H-pyrrol-2-yl]-(3-hydroxy-3-methyl-azetidin-1-yl)-methanone], the inhibition at 3 µM was 40 to 75%.
Then `Cc1c(-c2ccc(Cl)cc2)c(C(=O)N2CCOCC2)n(Cc2cncnc2)c1C(F)(F)F` [Example 052, [3-(4-Chlorophenyl)-4-methyl-1-(pyrimidin-5-yl-methyl)-5-(trifluoromethyl)-1H-pyrrol-2-yl]-morpholin-4-yl-methanone], with 40 to 75%; and `Cc1c(-c2ccc(Cl)cc2)c(C(=O)N2CCOCC2)n(Cc2ccc[nH]c2=O)c1C(F)(F)F` [Example 053, 3-[[3-(4-Chlorophenyl)-4-methyl-2-(morpholine-4-carbonyl)-5-(trifluoromethyl)-1H-pyrrol-1-yl]-methyl]-1H-pyridin-2-one], with 40 to 75%; and `Cc1c(-c2ccc(Cl)cc2)c(C(=O)N2CCOCC2)n(Cc2cccc(=O)[nH]2)c1C(F)(F)F` [Example 054, 6-[[3-(4-Chlorophenyl)-4-methyl-2-(morpholine-4-carbonyl)-5-(trifluoromethyl)-1H-pyrrol-1-yl]-methyl]-1H-pyridin-2-one], with 75 to 95%.
The same measure for `Cc1c(-c2ccc(Cl)cc2)c(C(=O)N2CCOCC2)n(CCn2ccccc2=O)c1C(F)(F)F` [Example 055, 1-[2-[3-(4-Chlorophenyl)-4-methyl-2-(morpholine-4-carbonyl)-5-(trifluoromethyl)-1H-pyrrol-1-yl]-ethyl]-1H-pyridin-2-one]: 40 to 75%.
Regarding `Cc1c(-c2ccc(Cl)cc2)c(C(=O)N2CCOCC2)n(Cn2ccccc2=O)c1C(F)(F)F` [Example 056, 1-[[3-(4-Chlorophenyl)-4-methyl-2-(morpholine-4-carbonyl)-5-(trifluoromethyl)-1H-pyrrol-1-yl]-methyl]-1H-pyridin-2-one], the inhibition at 3 µM was 75 to 95%.
For `Cc1c(-c2ccc(Cl)cc2)c(C(=O)N2CCOCC2)n(Cc2ncn[nH]2)c1C(F)(F)F` [Example 060, [3-(4-Chlorophenyl)-4-methyl-1-(1H-[1,2,4]triazol-3-yl-methyl)-5-(trifluoromethyl)-1H-pyrrol-2-yl]-morpholin-4-yl-methanone], the inhibition at 3 µM fell in the range of 40 to 75%.
The same measure for `Cc1c(-c2ccc(Cl)cc2)c(C(=O)N(C)C(C)C)n(Cc2ncccn2)c1C(F)(F)F` [Example 061, 3-(4-Chlorophenyl)-N-isopropyl-N,4-dimethyl-1-(pyrimidin-2-yl-methyl)-5-(trifluoromethyl)-1H-pyrrole-2-carboxylic acid amide]: more than 95%; for `Cc1c(-c2ccc(Cl)cc2F)c(C(=O)N2CCOCC2)n(Cc2ncccn2)c1C(F)(F)F` [Example 062, [3-(4-Chloro-2-fluoro-phenyl)-4-methyl-1-(pyrimidin-2-yl-methyl)-5-(trifluoromethyl)-1H-pyrrol-2-yl]-morpholin-4-yl-methanone]: more than 95%.
Regarding `Cc1c(-c2ccc(Cl)cc2F)c(C(=O)N(C)C2CC2)n(Cc2ncccn2)c1C(F)(F)F` [Example 063, 3-(4-Chloro-2-fluoro-phenyl)-N-cyclopropyl-N,4-dimethyl-1-(pyrimidin-2-yl-methyl)-5-(trifluoromethyl)-1H-pyrrole-2-carboxylic acid amide], the inhibition at 3 µM was more than 95%.
Then `Cc1c(-c2ccc(Cl)cc2F)c(C(=O)N(C)C(C)C)n(Cc2ncccn2)c1C(F)(F)F` [Example 064, 3-(4-Chloro-2-fluoro-phenyl)-N-isopropyl-N,4-dimethyl-1-(pyrimidin-2-yl-methyl)-5-(trifluoromethyl)-1H-pyrrole-2-carboxylic acid amide], with more than 95%.
